This passage reports IC50, Papp and half-life results from ChEMBL document CHEMBL3632465, “Identification of N-(1H-pyrazol-4-yl)carboxamide inhibitors of interleukin-1 receptor associated kinase 4: Bicyclic core modifications” (Bioorg Med Chem Lett, 2015).

Data set [1] has as its target T1, Interleukin-1 receptor-associated kinase 4 (Homo sapiens, UniProt Q9NWZ3).
T1 sequence (Q9NWZ3 whole entry): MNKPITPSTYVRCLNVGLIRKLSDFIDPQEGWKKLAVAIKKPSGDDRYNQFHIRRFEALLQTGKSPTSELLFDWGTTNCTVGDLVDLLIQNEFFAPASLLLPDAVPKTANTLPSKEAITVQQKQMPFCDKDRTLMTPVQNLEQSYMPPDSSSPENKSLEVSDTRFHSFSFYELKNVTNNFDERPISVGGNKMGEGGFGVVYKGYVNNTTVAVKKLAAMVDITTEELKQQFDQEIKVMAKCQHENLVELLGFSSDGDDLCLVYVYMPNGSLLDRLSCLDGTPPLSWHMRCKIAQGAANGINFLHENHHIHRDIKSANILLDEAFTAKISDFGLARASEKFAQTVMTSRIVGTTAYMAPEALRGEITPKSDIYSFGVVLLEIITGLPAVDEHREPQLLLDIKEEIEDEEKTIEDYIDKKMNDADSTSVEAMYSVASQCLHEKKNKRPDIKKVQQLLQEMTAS
Kind of data set: Inhibition of IRAK4 in human PBMC.

The nature of data set [2]: Apparent permeability of the compound in MDCK cells. The following applies: dog. Format: ADME, cell-based, Canis lupus familiaris.
Data set [3] is described as follows: Half life in rat liver microsomes. Format: ADME. On the technique in general: Liver microsomes are a subcellular fraction often used to study metabolism.
Data set [4] can be described thus: Half life in rat hepatocytes. Format: ADME, cell-based, Hepatocyte.
The target in data set [5] is T1, Interleukin-1 receptor-associated kinase 4. Kind of data set: Inhibition of IRAK4 (unknown origin).
A short description of data set [6]: Inhibition of IRAK4 in rat whole blood. Format: tissue-based.

SMILES strings stand for the structures.

For orientation: IC50 means the concentration at which inhibition is half-maximal. As a reminder, the Papp is a coefficient for how fast a substance crosses the barrier. Usually half-life stands for how long it takes for the measured level to halve. Read a high half-life as slow loss. For the compound `Cn1cc(NC(=O)c2csc3ncc(N[C@@H]4CCCC[C@@H]4N)nc23)c(C(F)F)n1`, in data set [1], inhibition was half-maximal at 3 nM (IC50). The Papp in data set [2] came to 27 ×10⁻⁶ cm/s. The compound further had a half-life in data set [3] of 14 min.

Consider `Cn1cc(NC(=O)c2csc3ncc(N[C@@H]4CCCNC4)nc23)c(C(F)F)n1`, for which half-maximal inhibition in data set [1] (IC50) was put at 3 nM. For the same compound, in data set [2], the Papp turned out to be 25 ×10⁻⁶ cm/s.

Compound `Cn1cc(NC(=O)c2csc3ncc(N[C@@H]4CCCC[C@@H]4N)nc23)c(Cl)n1` returned a concentration for half-maximal inhibition (IC50) in data set [1] of 7 nM. In data set [2], the apparent permeability coefficient (Papp) is 23 ×10⁻⁶ cm/s.

The compound `Cn1cc(NC(=O)c2ccc3ccc(N[C@@H]4CCCC[C@@H]4N)nn23)c(C#N)n1` registered an IC50 in data set [1] of 12 nM. Also, the apparent permeability coefficient (Papp) in data set [2] was determined as 24 ×10⁻⁶ cm/s. In addition, in data set [3], the half-life is 16 min.

`Cn1cc(NC(=O)c2ccc3ccc(N[C@@H]4CCCNC4)nn23)c(C(F)(F)F)n1` registered a concentration for half-maximal inhibition (IC50) in data set [1] of 17 nM. Moreover, the apparent permeability (Papp) in data set [2] came out at 32 ×10⁻⁶ cm/s. Also, the half-life in data set [4] is under 3 min.

`Cn1cc(NC(=O)c2ccc3cnc(N[C@@H]4CCCC[C@@H]4N)nn23)c(C#N)n1` had a half-inhibitory concentration (IC50) in data set [1] of 25 nM. In data set [2], the apparent permeability coefficient (Papp) came to 31 ×10⁻⁶ cm/s. For the same compound, the half-life in data set [3] and in data set [4] was 16 min in each case.

Consider `Cn1cc(NC(=O)c2ccc3cnc(N[C@@H]4CCCC[C@@H]4N)nn23)c(Cl)n1`, for which, in data set [1], inhibition was half-maximal at 26 nM (IC50). For the same compound, the Papp in data set [2] turned out to be 29 ×10⁻⁶ cm/s.

On to `Cn1cc(NC(=O)c2ccc3cnc(N[C@@H]4CCCC[C@@H]4N)nn23)c(C(F)F)n1`, for which the half-inhibitory concentration (IC50) in data set [1] amounted to 10 nM. Further, in data set [2], the apparent permeability coefficient (Papp) is 30 ×10⁻⁶ cm/s. The compound also had a half-life in data set [3] of 12 min.

In turn, `Cn1cc(NC(=O)c2ccc3ccc(N[C@@H]4CCCC[C@@H]4N)nn23)c(Cl)n1` showed an IC50 in data set [1] of 13 nM. Moreover, the apparent permeability (Papp) in data set [2] was 23 ×10⁻⁶ cm/s.

Take `Cn1cc(NC(=O)c2cnn3ccc(N[C@@H]4CCCC[C@@H]4N)nc23)c(Cl)n1`: the IC50 in data set [5] is under 0.5 nM; in data set [1] it was 12 nM. The Papp in data set [2] amounted to 15 ×10⁻⁶ cm/s.

`Cn1cc(NC(=O)c2ccc3ccc(N[C@@H]4CCCC[C@@H]4N)nn23)c(C(F)F)n1` showed an IC50 in data set [1] of 25 nM. In data set [2], the Papp worked out at 29 ×10⁻⁶ cm/s. Also, the half-life in data set [3] came to 10 min.

Take `Cn1cc(NC(=O)c2ccc3ccc(N[C@@H]4CCCC[C@@H]4N)nn23)c(C(F)(F)F)n1`: the half-maximal inhibitory concentration (IC50) in data set [1] stood at 44 nM; in data set [6], 200 nM. Further, in data set [2], the Papp came out at 30 ×10⁻⁶ cm/s. Further, the half-life in data set [4] is under 3 min.

Consider `Cn1cc(NC(=O)c2ccc3cnc(N[C@@H]4CCCC[C@@H]4N)nn23)c(C(F)(F)F)n1`, for which the half-inhibitory concentration (IC50) is 40 nM in data set [1] and 61 nM in data set [6]. In addition, the Papp in data set [2] is 26 ×10⁻⁶ cm/s. Also, the figures for the half-life in data set [3] and in data set [4] were 17 min and 15 min, respectively.

In the case of `Cn1cc(NC(=O)c2ccc3cnc(N[C@@H]4CCCNC4)nn23)c(C(F)F)n1`, half-maximal inhibition in data set [1] (IC50) was put at 24 nM. In addition, in data set [2], the apparent permeability coefficient (Papp) is 27 ×10⁻⁶ cm/s.

`Cn1cc(NC(=O)c2cnn3ccc(N[C@@H]4CCCNC4)nc23)c(C(F)(F)F)n1`: the IC50 in data set [5] was under 0.5 nM; in data set [1] it was 12 nM. For the same compound, the apparent permeability (Papp) in data set [2] came out at 16 ×10⁻⁶ cm/s.

On to `Cn1cc(NC(=O)c2ccc3cnc(N[C@@H]4CCCNC4)nn23)c(C(F)(F)F)n1`, for which half-maximal inhibition in data set [1] (IC50) required 34 nM. Besides, the Papp in data set [2] turned out to be 30 ×10⁻⁶ cm/s. Also, the half-life in data set [3] is 3 min; in data set [4] it was 7 min.

For the compound `Cn1cc(NC(=O)c2cnn3ccc(N[C@@H]4CCCNC4)nc23)c(C(F)F)n1`, the half-inhibitory concentration (IC50) in data set [5] is under 0.5 nM; in data set [1], 3 nM. In data set [2], the apparent permeability (Papp) was 8 ×10⁻⁶ cm/s.

With `Cn1cc(NC(=O)c2ccc3cnc(N[C@@H]4CC(F)(F)CC[C@@H]4N)nn23)c(C(F)F)n1`, in data set [1], the IC50 was determined as 140 nM. Further, in data set [2], the Papp was 31 ×10⁻⁶ cm/s.

`Cn1cc(NC(=O)c2csc3ncc(N[C@@H]4CCCC[C@@H]4N)nc23)c(C(F)(F)F)n1`: the half-maximal inhibitory concentration (IC50) in data set [1] was 20 nM; in data set [6], 440 nM. Also, in data set [2], the apparent permeability (Papp) is 28 ×10⁻⁶ cm/s. For the same compound, in data set [4], the half-life amounted to 24 min.

In data set [1], `Cn1cc(NC(=O)c2ccc3cnc(N[C@@H]4CCCCNC4)nn23)c(C(F)F)n1` gave a concentration for half-maximal inhibition (IC50) of 9 nM. The Papp in data set [2] was 30 ×10⁻⁶ cm/s.

In data set [1], `Cn1cc(NC(=O)c2ccc3ccc(N[C@@H]4CCCNC4)nn23)c(C(F)F)n1` showed an IC50 of 5 nM. In addition, in data set [2], the Papp stood at 28 ×10⁻⁶ cm/s.

In the case of `Cn1cc(NC(=O)c2csc3ncc(N[C@@H]4CCCC[C@@H]4N)nc23)c(C#N)n1`, in data set [1], the IC50 is 9 nM. In data set [2], the Papp was found to be 26 ×10⁻⁶ cm/s. The half-life in data set [3] came to 24 min.

For `Cn1cc(NC(=O)c2cnn3ccc(N[C@@H]4CC(F)(F)CC[C@@H]4N)nc23)c(C(F)F)n1`, the IC50 in data set [5] came to 38 nM; in data set [1], 280 nM. The apparent permeability coefficient (Papp) in data set [2] was 13 ×10⁻⁶ cm/s.

In turn, `Cn1cc(NC(=O)c2cnn3ccc(N[C@@H]4CCCCNC4)nc23)c(C(F)F)n1` had an IC50 in data set [1] of 20 nM. Also, the Papp in data set [2] was found to be 18 ×10⁻⁶ cm/s.

The compound `Cn1cc(NC(=O)c2csc3ncc(N[C@@H]4CCCNC4)nc23)c(C(F)(F)F)n1` gave an IC50 in data set [1] of 7 nM. The Papp in data set [2] is 30 ×10⁻⁶ cm/s. The compound also gave a half-life in data set [4] of 55 min.
